In experiment [1] the test system is IPEC-J2 cells. Description: Salmonella invasion of IPEC-J2 cell monolayers. Type of experiment: cell-based. The settings on record: 6 h with recombinant MccJ25, Salmonella for 2 h; plate counts, n = 9. The protocol:
FIGURE S1 | Protective effects of recombinant MccJ25 against Salmonella invasion of IPEC-J2 cell monolayers. IPEC-J2 cells were cultured with or without recombinant MccJ25 for 6 h in the absence or presence of Salmonella for 2 h. The invasion of Salmonella in the IPEC-J2 cells was determined. Salmonella (mean CFU/ml ± SEMs) were determined by plate counts, and determined from three individual experiments. n = 9. Different superscript lowercase letters within each group indicate significant differences (P < 0.05).

Experiment [2] has as its system E. coli O157:H7. Description: Antimicrobial activity (killing) curves. Format: cell-based, Escherichia coli. The settings on record: 4 × MIC; log phase, ~5 × 10^4 CFU/mL in LB, 37°C; plate counts at 0, 2, 4, 6 h; n = 6. The protocol:
(§1) To further address the activity of recombinant MccJ25, antimicrobial activity curves and Live/Dead viability assay were performed. A single colony of S. Pullorum CVCC1791, S. Typhimurium ATCC14082, and E. coli O157:H7 was inoculated into 5 mL of LB. The culture was then incubated at 37°C with shaking at 200 rpm overnight. The following day, the culture was diluted 1:100 in fresh LB and again incubated at 37°C with shaking at 200 rpm. For antimicrobial activity, the bacteria were grown until they reached log phase. Approximately 5 × 10^4 CFU/mL bacteria were inoculated into 2 mL of LB containing different concentrations of the recombinant MccJ25 (0, 1 × MIC, 2 × MIC, and 4 × MIC). The cultures (0.1 mL) were serially diluted with PBS and plated on LB and TSA agar at 0, 2, 4, and 6 h. The plates were incubated at 37°C overnight to count colony. Colonies were counted to determine CFU/mL. The experiment was conducted with two replicates in three independent trials.

The subject of another experiment is S. Typhimurium ATCC14082. The experiment can be described thus: Antimicrobial activity (killing) curves. Format: cell-based, Salmonella Typhimurium. The settings on record: 4 × MIC; log phase, ~5 × 10^4 CFU/mL in LB, 37°C; plate counts at 0, 2, 4, 6 h; n = 6. The protocol: as §1
The test system of experiment [3] is S. Typhimurium. Description: Antimicrobial activity in biological food products (skim milk, egg yolk, mincemeat extract). Format: cell-based, Salmonella Typhimurium. Particulars: 4 × MIC, SKM, 37°C; for viable bacteria after 24 h in the three food products: SEY, SMS, data not shown. On the procedure: (§2) To further investigate the effects of recombinant MccJ25 on Salmonella and E. coli O157:H7 in different biological food products, sterile skim milk, egg yolk and mincemeat (pork) extract were collected and used as described previously with minor modifications ([Sable et al., 2000]). The skim milk, egg and mincemeat samples were purchased from a Carrefour store in Beijing. Specimens were kept on ice packs in coolers until they reached the laboratory, where they were stored at 4°C. The skim milk (SKM) and mincemeat supernatant (SMS) were autoclave sterilized at 121°C for 20 min. After autoclaving, the SKM and SMS samples were stored at 4°C for further use. The eggs were sterilized with 75% ethanol and transferred into an exceptionally clean bench to collect the egg yolk (SEY). The SEY was diluted 1:1 with sterile distilled water. Biological product samples were mixed with a final concentration of 4 × MIC of recombinant MccJ25 solution in sterile saline water (0.85%). They were then inoculated with S. Pullorum, S. […] Sterilized saline water (SSW) with the recombinant MccJ25 was utilized for comparison. This assay was performed to obtain the desired quantity of cells. The mixtures were tested after 24 h of incubation at 37°C with shaking (250 rpm). After incubation, Salmonella species and E. coli O157:H7 were serially diluted with PBS and plated on LB and TSA agar. The plates were incubated at 37°C overnight to count colony. Colonies were counted to determine CFU/mL. The experiment was conducted with two replicates in three independent trials.

Experiment [4] relates to E. coli O157:H7. Description: Antimicrobial activity in different growth phases, viable plate counting. Type of experiment: cell-based, Escherichia coli. Particulars: 4 × MIC, LB, plate counts, n = 6. The protocol:
The effect of growth phase on the anti-Salmonella and -E. coli O157:H7 activity of recombinant MccJ25 was determined by the viable plate counting method, as described previously ([Ma et al., 2016]; [Fan et al., 2017]), with minor modifications. Cultures of the strains in the early-log phase, late-log phase and stationary phase were washed, concentrated and diluted with sterilized phosphate-buffered saline (PBS) to approximately 10^7 CFU/mL. Then, 1 mL was incubated individually in 9 mL of PBS to reach an approximate 10^6 CFU/mL final concentration. The bacterial cells were then inoculated into 5 mL of LB containing different concentrations of MccJ25 (0, 1 × MIC, 2 × MIC, and 4 × MIC). At 0, 12, 24, and 48 h post incubation, the cultures (0.1 mL) were serially diluted with PBS and plated on LB and TSA agar. The plates were incubated at 37°C overnight to count colony. Colonies were counted to determine CFU/mL. The experiment was conducted with two replicates in three independent trials.

Experiment [5] has as its system S. Typhimurium. The experiment can be described thus: Live/Dead BacLight viability assay. Particulars: at the MIC level, 2 h at 37°C, 5 × 10^4 CFU/mL in LB; fluorescence microscopy. Format: cell-based, Salmonella Typhimurium. On the procedure:
A Live/Dead BacLight Bacterial Viability Kit 7 (Molecular Probes, Inc., Eugene) was used to test bacterial viability. Briefly, 5 × 10^4 CFU/mL S. Pullorum, S. Typhimurium, and E. coli O157:H7 were inoculated into 1 mL of LB containing recombinant MccJ25 at the MIC level specific for each pathogen. Bacterial cultures were incubated at 37°C for 2 h and then incubated in the dark at ambient temperature with SYTO 9 and propidium iodide for 15 min. Bacteria were observed using a fluorescence microscope (EVOS XL Cell Imaging System).

The subject of another experiment is S. Pullorum. The experiment can be described thus: Antimicrobial activity in biological food products (skim milk, egg yolk, mincemeat extract). Particulars: 4 × MIC, 37°C; for viable bacteria after 24 h in the three food products: SKM, SEY, SMS, data not shown; for CFU reduction after 24 h: inoculum 10^6 CFU/mL, 250 rpm, plate counts, n = 6. Format: cell-based, Salmonella Pullorum. On the procedure:
as §2

In experiment [6] the test system is IPEC-J2 cells. Description: Salmonella-induced damage to IPEC-J2 cells (TEER, FD4, LDH). Format: cell-based. The settings on record: 2 μg/mL for 6 h, Salmonella for 2 h; n = 9. The protocol: FIGURE S2 | Recombinant MccJ25 inhibited Salmonella-induced damage to IPEC-J2 cells. IPEC-J2 cells were cultured with or without recombinant MccJ25 (2 μg/mL) for 6 h in the absence or presence of Salmonella for 2 h. TEER (A), FD4 level (B), and LDH activity (C) in the IPEC-J2 cells were determined. Data are the means ± SEMs of three independent experiments, n = 9. Different superscript lowercase letters within each group indicate significant differences (P < 0.05); The asterisk denotes a significant difference in comparison with the control group (*P < 0.05, **P < 0.01).

Positions of bridges follow the written chain, without caps; N, C: chain ends. Residues, ends and D or L forms follow the SMILES beside them.

One compound from PMC6718478, “A Comprehensive Antimicrobial Activity Evaluation of the Recombinant Microcin J25 Against the Foodborne Pathogens Salmonella and E. coli O157:H7 by Using a Matrix of Conditions” (Frontiers in Microbiology, 2019) can be followed below.

In the case of `CC[C@H](C)[C@H](NC(=O)CNC(=O)[C@@H](NC(=O)[C@H](Cc1ccccc1)NC(=O)[C@H](Cc1ccc(O)cc1)NC(=O)[C@@H]1CCC(=O)NCC(=O)NCC(=O)N[C@@H](C)C(=O)NCC(=O)N[C@@H](Cc2c[nH]cn2)C(=O)N[C@@H](C(C)C)C(=O)N2CCC[C@H]2C(=O)N1)C(C)C)C(=O)NCC(=O)N[C@H](C(=O)N1CCC[C@H]1C(=O)N[C@H](C(=O)N[C@@H](CO)C(=O)N[C@@H](Cc1ccccc1)C(=O)N[C@@H](Cc1ccc(O)cc1)C(=O)NCC(=O)O)[C@@H](C)CC)[C@@H](C)O` [recombinant MccJ25, microcin J25] (GGAGHVPEYFVGIGTPISFYG-OH; lactam N-8 (inferred); C-terminus assumed), in the experiment with IPEC-J2 cells [1], the “S. Pullorum invasion of IPEC-J2 cells” value is given as “inhibited S. Pullorum invasion”. For the same compound, the “incubation time after which the pathogen was eliminated (killing curve)” value with E. coli O157:H7 [2] and in the experiment on S. Typhimurium ATCC14082 was 6 h each time. In addition, the “viable bacteria after 24 h in the three food products” value in the experiment on S. Typhimurium [3] (inoculum 10^3 CFU/mL) was “no viable bacteria were detected”; with S. Typhimurium [3] (inoculum 10^4 CFU/mL) it was “no bacteria were detected”; in the experiment with S. Pullorum (inoculum 10^3 CFU/mL), “no viable bacteria were detected”; in the experiment on S. Pullorum (inoculum 10^4 CFU/mL), “no bacteria were detected”. Moreover, the “CFU reduction after 24 h” value in the experiment with S. Typhimurium [3] (SEY, and SMS, inoculum 10^6 CFU/mL, plate counts, n = 6) is recorded as “approximately 10^3 CFU/mL”; with S. Pullorum (sterilized egg yolk (SEY), diluted 1:1), ~8 × 10^3 CFU/mL; in the experiment on S. Pullorum (sterilized mincemeat supernatant (SMS)), ~7 × 10^3 CFU/mL; in the experiment on S. Pullorum (sterilized skim milk (SKM)), “approximately 10^4 CFU/mL”. The “time to reduction to non-detectable levels” value is given as not above 12 h with E. coli O157:H7 [4] (early-log phase cells), not above 24 h in the experiment on E. coli O157:H7 [4] (late-log phase cells) and 48 h with E. coli O157:H7 [4] (stationary phase cells). Moreover, the “bactericidal activity, Live/Dead staining (SYTO 9 / propidium iodide)” value with S. Typhimurium [5] is recorded as “excellent bactericidal activity”. Further, the “S. Pullorum-induced decrease in TEER” value in the experiment on IPEC-J2 cells [6] is given as “attenuated”. Moreover, in the experiment with IPEC-J2 cells [6], the “S. Pullorum-induced increase in FD4 level” value is reported as “attenuated”. Also, in the experiment with IPEC-J2 cells [6], the “S. Pullorum-induced increase in LDH level” value is given as “attenuated”.
